{"source": "patent EP0415999B1", "about": "“COMPOSITIONS HAVING USE AS TREATMENT OF PSORIASIS AND NEUROP[…]” (THE UNITED STATES OF AMERICA as represented by the …, priority 1988, dated 1998)", "tested_on": "volunteers who tested negative or HIV antibodies", "experiment": "Overall neuropsychologic and clinical observations during seven-day peptide administration", "assay_type": "in vivo, human", "protocol": "As indicated in the Table, symptoms of substance abuse, childhood dyslexia and depression were ameliorated. The peptide having the formula: [formula] was given at dosage of 0.033 mg/kg/da to 0.133 mg/kg/da for seven days. As indicated in the Table, the unexpected effects observed in these volunteers who tested negative or HIV antibodies were the following: • 1. […] This effect maintained for one month of follow-up."}
{"smiles": "C[C@@H](N)C(=O)N[C@@H](CO)C(=O)N[C@H](C(=O)N[C@H](C(=O)N[C@H](C(=O)N[C@@H](CC(N)=O)C(=O)N[C@@H](Cc1ccc(O)cc1)C(=O)N[C@H](C(N)=O)[C@@H](C)O)[C@@H](C)O)[C@@H](C)O)[C@@H](C)O", "note": "[Peptide T]", "values": [{"measurement": "scores on memory and attention components of standard neuropsychologic tests", "setting": "0.033 mg/kg/da to 0.133 mg/kg/da for seven days, remitted after Peptide T was discontinued", "result": "Incremental scores"}, {"measurement": "physical activity", "setting": "all subjects, while on drug, did not continue after drug discontinuance", "result": "increases in physical activity"}, {"measurement": "fatigue, energy and vigor (reported by subjects)", "setting": "all subjects, effect abated off drug", "result": "decreased fatigue and increased energy and vigor"}, {"measurement": "mood scores on depression scales", "setting": "two research volunteers with prior histories of depression, effect maintained for one month of follow-up", "result": "Improved mood scores"}]}
